Source: PMC9516332 (Frontiers in Oncology, 2022)
Where two headings read alike, the source gives them in different places.

Assays:
Test in all cases: Kinase panel profiling at 1 µmol/L (MSA or IMAP), percentage inhibition
Format in all cases: biochemical
[1] = target: T1, panel of 255 wild-type kinases (Homo sapiens, UniProt P51813); conditions: read-out: %-inhibition BMX
T1 sequence (P51813 1-675): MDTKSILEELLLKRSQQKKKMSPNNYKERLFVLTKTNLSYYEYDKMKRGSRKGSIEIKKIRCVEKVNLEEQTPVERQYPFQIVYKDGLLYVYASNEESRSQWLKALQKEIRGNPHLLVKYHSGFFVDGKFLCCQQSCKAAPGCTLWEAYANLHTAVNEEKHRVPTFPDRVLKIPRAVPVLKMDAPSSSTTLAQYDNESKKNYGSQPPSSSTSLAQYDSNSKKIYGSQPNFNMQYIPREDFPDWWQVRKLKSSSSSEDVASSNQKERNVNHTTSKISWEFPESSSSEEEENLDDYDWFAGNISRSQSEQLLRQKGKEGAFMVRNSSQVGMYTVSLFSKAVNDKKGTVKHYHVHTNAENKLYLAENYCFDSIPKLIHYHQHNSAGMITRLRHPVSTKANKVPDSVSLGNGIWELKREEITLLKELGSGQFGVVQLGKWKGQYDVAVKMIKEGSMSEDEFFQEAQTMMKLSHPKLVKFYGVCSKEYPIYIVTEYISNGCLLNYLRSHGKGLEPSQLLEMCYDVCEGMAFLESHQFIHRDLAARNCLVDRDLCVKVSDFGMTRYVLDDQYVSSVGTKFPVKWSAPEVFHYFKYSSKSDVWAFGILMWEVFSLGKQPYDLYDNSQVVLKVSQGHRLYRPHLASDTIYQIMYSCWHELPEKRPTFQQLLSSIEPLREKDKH

[2] = target: panel of 255 wild-type kinases (Homo sapiens, UniProt P49674); conditions: read-out: %-inhibition at 1 µmol/L, CK1ε
[3] = target: panel of 255 wild-type kinases (Homo sapiens, UniProt P08069); conditions: read-out: %-inhibition at 1 µmol/L, IGF1R
[4] = target: panel of 255 wild-type kinases (Homo sapiens, UniProt Q9HBH9); conditions: read-out: %-inhibition, MNK2
[5] = target: T2, panel of 255 wild-type kinases (Homo sapiens, UniProt O15264); conditions: read-out: %-inhibition, p38δ
T2 sequence (O15264 1-365): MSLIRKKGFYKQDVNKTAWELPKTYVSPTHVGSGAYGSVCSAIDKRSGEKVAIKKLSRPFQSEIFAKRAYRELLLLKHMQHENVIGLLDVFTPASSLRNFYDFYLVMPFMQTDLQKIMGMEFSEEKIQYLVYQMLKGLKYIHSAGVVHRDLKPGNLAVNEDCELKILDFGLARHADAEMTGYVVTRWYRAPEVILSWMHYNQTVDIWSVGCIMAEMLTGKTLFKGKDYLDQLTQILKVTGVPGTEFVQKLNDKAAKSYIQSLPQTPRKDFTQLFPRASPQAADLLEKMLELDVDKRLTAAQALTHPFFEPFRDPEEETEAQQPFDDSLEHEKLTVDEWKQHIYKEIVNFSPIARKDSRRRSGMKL

[6] = target: panel of 255 wild-type kinases (Homo sapiens, UniProt Q07912); conditions: read-out: %-inhibition ACK
[7] = target: T3, panel of 255 wild-type kinases (Homo sapiens, UniProt O14757); conditions: read-out: %-inhibition CHK1
T3 sequence (O14757 1-476): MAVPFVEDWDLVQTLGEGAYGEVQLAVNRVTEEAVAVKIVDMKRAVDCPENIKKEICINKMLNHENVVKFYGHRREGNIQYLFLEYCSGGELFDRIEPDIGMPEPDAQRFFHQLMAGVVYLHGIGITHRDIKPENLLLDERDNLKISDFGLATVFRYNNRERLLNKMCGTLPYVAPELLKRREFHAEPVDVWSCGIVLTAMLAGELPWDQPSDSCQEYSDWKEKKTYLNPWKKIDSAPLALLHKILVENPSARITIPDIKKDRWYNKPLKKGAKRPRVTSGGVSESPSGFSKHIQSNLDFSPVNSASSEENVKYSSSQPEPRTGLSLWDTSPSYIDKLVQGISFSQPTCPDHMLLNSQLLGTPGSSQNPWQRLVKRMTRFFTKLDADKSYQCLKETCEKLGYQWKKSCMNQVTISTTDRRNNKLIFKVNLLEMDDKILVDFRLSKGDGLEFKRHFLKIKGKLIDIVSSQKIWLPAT

[8] = target: panel of 255 wild-type kinases (Homo sapiens, UniProt P57059); conditions: read-out: %-inhibition at 1 µmol/L, SIK
[9] = target: panel of 255 wild-type kinases (Homo sapiens, UniProt O14578); conditions: read-out: %-inhibition at 1 µmol/L, CRIK
[10] = target: panel of 255 wild-type kinases (Homo sapiens, UniProt Q9UBS0); conditions: read-out: %-inhibition, p70S6Kβ
[11] = BMX kinase assay, 1 µmol/L single concentration
[12] = kinase CK1ε, 1 µmol/L single concentration
[13] = kinase IGF1R, 1 µmol/L single concentration
[14] = MNK2, 1 µmol/L single concentration
[15] = p38δ, 1 µmol/L single concentration
[16] = ACK kinase assay, 1 µmol/L single concentration
[17] = CHK1 kinase assay, 1 µmol/L single concentration
[18] = kinase SIK, 1 µmol/L single concentration
[19] = kinase CRIK, 1 µmol/L single concentration
[20] = p70S6Kβ, 1 µmol/L single concentration

Structure (SMILES) | inhibition at 1 µM [1, 11] [%] | inhibition at 1 µM [2, 12] [%] | inhibition at 1 µM [3, 13] [%] | inhibition at 1 µM [4, 14] [%] | inhibition at 1 µM [5, 15] [%] | inhibition at 1 µM [6, 16] [%] | inhibition at 1 µM [7, 17] [%] | inhibition at 1 µM [8, 18] [%] | inhibition at 1 µM [9, 19] [%] | inhibition at 1 µM [10, 20] [%] | inhibition at 1 µM [1] [%] | inhibition at 1 µM [2] [%] | inhibition at 1 µM [3] [%] | inhibition at 1 µM [4] [%] | inhibition at 1 µM [5] [%] | inhibition at 1 µM [6] [%] | inhibition at 1 µM [7] [%] | inhibition at 1 µM [8] [%] | inhibition at 1 µM [9] [%] | inhibition at 1 µM [10] [%]
Cc1nc(NC(=O)N2CCC[C@H]2C(N)=O)sc1-c1ccnc(C(C)(C)C(F)(F)F)c1 [alpelisib] | 0.476 | -2.48 | -0.261 | 8 | -4.21 | 5.5 | 11 | -10 | -5.56 | 4.37 | – | – | – | – | – | – | – | – | – | –
Cn1cc(-c2cc3c(N4CCN(c5ncc([C@@](C)(N)c6ccc(F)cc6)cn5)CC4)ncnn3c2)cn1 [avapritinib] | 21 | 2.14 | 3.41 | 29 | 0.654 | 73 | 40 | 37 | -0.548 | 6 | – | – | – | – | – | – | – | – | – | –
Cn1cnc2c(F)c(Nc3ccc(Br)cc3F)c(C(=O)NOCCO)cc21 [binimetinib] | 4 | -3.48 | 4.47 | -13 | 3.49 | -4 | 9 | 0.277 | -3.44 | 1.09 | – | – | – | – | – | – | – | – | – | –
CNC(=O)c1ccc(-c2cnc3ncc(Cc4ccc5ncccc5c4)n3n2)cc1F [capmatinib] | – | – | – | – | – | – | – | – | – | – | 4.33 | -6 | 5.7 | -4 | -4 | 1 | 0.209 | -6.33 | -4.75 | 12
COc1cc2ncnc(Nc3ccc(F)c(Cl)c3)c2cc1NC(=O)/C=C/CN1CCCCC1 [dacomitinib] | 12 | 6.55 | 3.29 | 76 | 0.0743 | 32 | 10 | 40 | 32 | -0.889 | – | – | – | – | – | – | – | – | – | –
C[C@H](Nc1ncnc2nc[nH]c12)c1cc2cccc(Cl)c2c(=O)n1-c1ccccc1 [duvelisib] | 1.46 | 5 | 1.51 | 7 | -3 | 2.28 | 5.69 | -1.9 | -3.16 | 2.47 | – | – | – | – | – | – | – | – | – | –
COC(=O)N[C@@H](C)CNc1nccc(-c2cn(C(C)C)nc2-c2cc(Cl)cc(NS(C)(=O)=O)c2F)n1 [encorafenib] | 8 | 15 | 6.61 | -3.42 | 5 | -4.66 | 14 | 2.23 | 2.72 | 8 | – | – | – | – | – | – | – | – | – | –
CN1CCN(c2ccc(C(=O)Nc3n[nH]c4ccc(Cc5cc(F)cc(F)c5)cc34)c(NC3CCOCC3)c2)CC1 [entrectinib] | 99 | 10 | 98 | 0.904 | -3 | – | 14 | 7.49 | -9 | 0.699 | – | – | – | – | – | – | – | – | – | –
CCc1nc(C(N)=O)c(Nc2ccc(N3CCC(N4CCN(C)CC4)CC3)c(OC)c2)nc1NC1CCOCC1 [gilteritinib] | 60 | 5.55 | 99 | 89 | 1.74 | 90 | 22 | 59 | 75 | 23 | – | – | – | – | – | – | – | – | – | –
CCN1CCN(c2ccc(Nc3cc(N(C)C(=O)Nc4c(Cl)c(OC)cc(OC)c4Cl)ncn3)cc2)CC1 [infigratinib] | 0.836 | -6.49 | 18 | -1.83 | -4 | 43 | -1.07 | 30 | -2.56 | 5.43 | – | – | – | – | – | – | – | – | – | –
O=C(Nc1cnn2ccc(N3CCC[C@@H]3c3cc(F)ccc3F)nc12)N1CC[C@H](O)C1 [larotrectinib] | 21 | -2.19 | 3.6 | -8.51 | -7 | 52 | 14 | -1.7 | -4.22 | 4.22 | – | – | – | – | – | – | – | – | – | –
C[C@H]1Oc2cc(cnc2N)-c2c(nn(C)c2C#N)CN(C)C(=O)c2ccc(F)cc21 [lorlatinib] | 4 | 0.583 | 79 | 13 | -3.52 | – | 12 | -1.87 | -1.22 | 11 | – | – | – | – | – | – | – | – | – | –
CCN1C(=O)N(c2c(F)c(OC)cc(OC)c2F)Cc2cnc3[nH]c(CN4CCOCC4)cc3c21 [pemigatinib] | 1.44 | 1.32 | 7 | -7.4 | -6 | 4.32 | 12 | 22 | -4.34 | -0.851 | – | – | – | – | – | – | – | – | – | –
FC(F)(F)c1ccc(CNc2ccc(Cc3c[nH]c4ncc(Cl)cc34)cn2)cn1 [pexidartinib] | -0.565 | 5.38 | 17 | 48 | 1.15 | 12 | 5.6 | 9 | -1.09 | 7 | – | – | – | – | – | – | – | – | – | –
C=CC(=O)N1CCC([C@@H]2CCNc3c(C(N)=O)c(-c4ccc(Oc5ccccc5)cc4)nn32)CC1 [zanubrutinib] | – | 4.32 | 3 | -5 | -6.43 | 11 | 16 | -2 | -2.4 | -0.467 | – | – | – | – | – | – | – | – | – | –
